Where two headings read alike, the source gives them in different places.
Experiments:
Type in all cases: cell-based
[1] = Mitotoxicity / Mitotox safety margin (therapeutic window)
HeLa MKYP cells [2] = assay: Human mitophagy assay (HeLa mKeima assay, FACS)
How it was run: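 HeLa cells carrying the pH-sensitive mtKeima tag incubated 16 h with compound at several concentrations, then 1 uM FCCP/oligomycin for 6 h. FACS detects mitochondria in lysosomes through the Keima emission shift, quantified as percentage of cells in mitophagy.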

HeLa MKYP cells [3] = assay: Cell death measured by DAPI staining, with 1 μM FCCP/oligomycin or no toxin (no FO)
How it was run: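 HeLa MKYP cells were treated with compounds alongside 1 μM FCCP/oligomycin or no toxin for 6 or 6.5 h. Cell death was scored by DAPI staining, with H2O2 treatment as the death control.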

[4] = Homo sapiens, HeLa, read-out: Mitophagy induction EC50
[5] = read-out: Mitophagy induction EC50

SMILES | EC50 (HeLa MKYP cells [2]; [4]) [µM] | Highest safe dose (cytotoxicity; no FO; safe means DAPI+ <20%) (HeLa MKYP cells [3]; no FO) [µM] | Max % death with 1 μM FO (HeLa MKYP cells [3]) [%] | other results
FC(F)(F)c1cc2c(N[C@H]3c4ccccc4OC[C@H]3C3CCCOC3)ncnc2[nH]1 (mixture of isomers) [EP-0041004] | 0.98 | 25.0 | 71.7 | Mito-Safety Index (highest safe dose/EC50) [1]: 25.46; Highest safe dose (μM) (mitotox or cytotox) [1]: 25.0 µM
Oc1ccc2c(c1)CCC[C@H]2Nc1ncnc2[nH]c(C(F)(F)F)cc12 (single isomer, unassigned) [EP-0038508] |  |  |  | mitotoxicity ([1]; FIG. 5-7): low mitotoxicity
Fc1ccc2c(c1)CC[C@H](N1CCOCC1)[C@H]2Nc1ncnc2[nH]c(C3CC3)cc12 (single isomer, unassigned) [EP-0039746] |  | 25.0 | 13.4 | Mitotox safety margin (Therapeutic window) [1]: +++ (+++ = 20 < x < 30); Mito-Safety Index (highest safe dose/EC50) [1]: 9.48; Highest safe dose (μM) (mitotox or cytotox) [1]: 2.8 µM; EC50 (HeLa MKYP cells [2]; HeLa mKeima assay, read-out: Mitophagy EC50 (HeLa mKeima assay)): 0.25 µM; EC50 (HeLa MKYP cells [2]; [5]): 0.29 µM; Max cell death at 25 μM compound, 1 uM FO (%) (HeLa MKYP cells [3]; 25 μM compound, 1 uM FO): 15.3%; Cell death at 25 μM (no FO) (%) (HeLa MKYP cells [3]; 25 μM compound, no FO): 3.3%
c1ccc2c(c1)CC[C@H](N1CCOCC1)[C@H]2Nc1ncnc2[nH]c(C3CC3)cc12 (single isomer, unassigned) [EP-0040108] | 0.13 | 25.0 | 19.1 | Mito-Safety Index (highest safe dose/EC50) [1]: 138.83; Highest safe dose (μM) (mitotox or cytotox) [1]: 18.3 µM
c1ccc2c(c1)CC[C@@H](N1CCOCC1)[C@@H]2Nc1ncnc2[nH]c(C3CC3)cc12 (single isomer, unassigned) [EP-0040109] | 24.8 | 25.0 | 7.9 | Mito-Safety Index (highest safe dose/EC50) [1]: 1.01; Highest safe dose (μM) (mitotox or cytotox) [1]: 25.0 µM
Fc1ccc2c(c1)OC[C@H](N1C[C@H]3COC[C@H]3C1)[C@H]2Nc1ncnc2[nH]c(C3CC3)cc12 (single isomer, unassigned) [EP-0040328] |  | 25.0 | 16.0 | Mito-Safety Index (highest safe dose/EC50) [1]: 84.78; Highest safe dose (μM) (mitotox or cytotox) [1]: 16.0 µM; EC50 (HeLa MKYP cells [2]; [5]): 0.19 µM
c1ccc2c(c1)OC[C@@H](N1C[C@H]3COC[C@H]3C1)[C@@H]2Nc1ncnc2[nH]c(C3CC3)cc12 (single isomer, unassigned) [EP-0040392] | 0.11 | 25.0 | 11.8 | Mito-Safety Index (highest safe dose/EC50) [1]: 153.83; Highest safe dose (μM) (mitotox or cytotox) [1]: 16.6 µM
C[C@@H]1CN([C@H]2CCc3ccccc3[C@@H]2Nc2ncnc3[nH]c(C(F)(F)F)cc23)CCO1 (single isomer, unassigned) [EP-0040491] | 0.07 | 25.0 | 19.4 | Mito-Safety Index (highest safe dose/EC50) [1]: 49.72; Highest safe dose (μM) (mitotox or cytotox) [1]: 3.7 µM
C[C@@H]1CN([C@H]2CCc3ccccc3[C@@H]2Nc2ncnc3[nH]c(C(F)(F)F)cc23)C[C@H](C)O1 (single isomer, unassigned) [EP-0040493] | 0.02 | 25.0 | 14.8 | Mito-Safety Index (highest safe dose/EC50) [1]: 103.09; Highest safe dose (μM) (mitotox or cytotox) [1]: 1.7 µM
c1ccc2c(c1)OC[C@H](C1CCOCC1)[C@H]2Nc1ncnc2[nH]c(C3CC3)cc12 [EP-0040728] | 9.4 | 25.0 | 3.7 | 
c1ccc2c(c1)OC[C@@H](C1CCOCC1)[C@H]2Nc1ncnc2[nH]c(C3CC3)cc12 [EP-0040730] | > 25 | 25.0 | 8.3 | 
c1ccc2c(c1)OC[C@H](C1CCOCC1)[C@@H]2Nc1ncnc2[nH]c(C3CC3)cc12 [EP-0040731] | > 25 | 25.0 | 2.7 | 
c1ccc2c(c1)CC[C@@H](N1C[C@H]3COC[C@@H]3C1)[C@@H]2Nc1ncnc2[nH]c(C3CC3)cc12 [EP-0040767] | > 25 | 25.0 | 7.9 | 
COC1CN([C@@H]2CCc3ccccc3[C@H]2Nc2ncnc3[nH]c(C(F)(F)F)cc23)C1 [EP-0040858] | ≥ 28.8 | 25.0 | 6.6 | 
C[C@@H]1CN([C@H]2COc3ccccc3[C@@H]2Nc2ncnc3[nH]c(C(F)(F)F)cc23)C[C@H](C)O1 [EP-0040942] | > 25 | 25.0 | 4.7 | 
C[C@@H]1CN([C@H]2COc3ccccc3[C@@H]2Nc2ncnc3[nH]c(C(F)(F)F)cc23)CCO1 [EP-0040955] | > 25 | 25.0 | 3.4 | 
C[C@@H]1CN([C@H]2COc3ccccc3[C@@H]2Nc2ncnc3[nH]c(C4CC4)cc23)CCO1 [EP-0040957] | 22.8 | 25.0 | 3.8 | 
C[C@H]1CN([C@H]2COc3ccccc3[C@@H]2Nc2ncnc3[nH]c(C(F)(F)F)cc23)CCO1 [EP-0040979] | > 25 | 25.0 | 4.0 | 

SMILES | EC50 (HeLa MKYP cells [2]; [4]) [µM] | Highest safe dose (cytotoxicity; no FO; safe means DAPI+ <20%) (HeLa MKYP cells [3]; no FO) [µM] | Max % death with 1 μM FO (HeLa MKYP cells [3]) [%] | other results
C[C@H]1CN([C@H]2COc3cc(F)ccc3[C@@H]2Nc2ncnc3[nH]c(C(F)(F)F)cc23)CCO1 [EP-0040981] | 2.44 | 25.0 | 7.0 | 
C[C@H]1CN([C@@H]2COc3cc(F)ccc3[C@H]2Nc2ncnc3[nH]c(C(F)(F)F)cc23)CCO1 [EP-0040982] | 7.62 | 25.0 | 6.1 | 
C[C@H]1CN([C@@H]2COc3ccccc3[C@H]2Nc2ncnc3[nH]c(C4CC4)cc23)CCO1 [EP-0041000] | 1.32 | 25.0 | 6.5 | 
FC(F)(F)c1cc2c(N[C@@H]3c4ccccc4OC[C@H]3C3CCCOC3)ncnc2[nH]1 (stereo partly drawn) [EP-0041003] | > 25 | 25.0 | 5.3 | 
C[C@@H]1CN([C@H]2COc3cc(F)ccc3[C@@H]2Nc2ncnc3[nH]c(C(F)(F)F)cc23)CCO1 [EP-0041087] | 9.38 | 25.0 | 5.1 | 
C[C@@H]1CN([C@@H]2COc3cc(F)ccc3[C@H]2Nc2ncnc3[nH]c(C4CC4)cc23)CCO1 [EP-0041123] | 11 | 25.0 | 7.3 | 
C[C@H]1CN([C@H]2COc3cc(F)ccc3[C@@H]2Nc2ncnc3[nH]c(C4CC4)cc23)CCO1 [EP-0041124] | 5.32 | 25.0 | 12.7 | 
OC(C1CCOCC1)[C@H]1COc2ccccc2[C@@H]1Nc1ncnc2[nH]c(C(F)(F)F)cc12 (stereo partly drawn) [EP-0041135] | 1.53 | 25.0 | 15.7 | 
CO[C@@H]1CCN([C@@H]2COc3ccccc3[C@H]2Nc2ncnc3[nH]c(C(F)(F)F)cc23)C1 [EP-0041162] | > 25 | 25.0 | 4.2 | 
CO[C@H]1CCN([C@@H]2COc3ccccc3[C@H]2Nc2ncnc3[nH]c(C(F)(F)F)cc23)C1 [EP-0041173] | 4.09 | 25.0 | 6.1 | 
COCC1CC([C@H]2COc3ccccc3[C@@H]2Nc2ncnc3[nH]c(C(F)(F)F)cc23)C1 (stereo partly drawn) [EP-0041260] | 0.85 | 25.0 | 10.2 | 
N#CC1CN([C@H]2COc3ccccc3[C@@H]2Nc2ncnc3[nH]c(C(F)(F)F)cc23)C1 [EP-0041332] | 1.54 | 25.0 | 11.7 | 
CC(C)OC1CN([C@H]2COc3ccccc3[C@@H]2Nc2ncnc3[nH]c(C(F)(F)F)cc23)C1 [EP-0041465] | 6.85 | 25.0 | 4.6 | 
COC(C)(C)C1CN([C@H]2COc3ccccc3[C@@H]2Nc2ncnc3[nH]c(C(F)(F)F)cc23)C1 [EP-0041480] | 2.69 | 25.0 | 4.6 | 
CS(=N)(=O)C1CN(C2COc3ccccc3C2Nc2ncnc3[nH]c(C(F)(F)F)cc23)C1 (stereo not drawn) [EP-0041496] | > 25 | 25.0 | 3.4 | 
CO[C@H]1CCN([C@@H]2COc3ccccc3[C@H]2Nc2ncnc3[nH]c(C4CC4)cc23)C1 [EP-0041518] | > 25 | 25.0 | 7.4 | 
COC[C@H]1CCN([C@H]2COc3ccccc3[C@@H]2Nc2ncnc3[nH]c(C4CC4)cc23)C1 [EP-0041547] |  | 25.0 | 8.2 | EC50 (HeLa MKYP cells [2]; [5]): 7.29 µM
COC[C@H]1CCCN1[C@H]1COc2ccccc2[C@@H]1Nc1ncnc2[nH]c(C(F)(F)F)cc12 [EP-0041553] | 15.2 | 25.0 | 5.7 | 
